Source: BigSolDB 2.1

O=C(O)c1cccc(C(=O)O)n1
Conditions	solubility (mole fraction)
in 1,4-dioxane, 293.15 K	0.00197
in 1,4-dioxane, 298.15 K	0.00219
in 1,4-dioxane, 303.15 K	0.0025
in 1,4-dioxane, 308.15 K	0.00291
in 1,4-dioxane, 313.15 K	0.00336
in 1,4-dioxane, 318.15 K	0.00393
in 1,4-dioxane, 323.15 K	0.00481
in 1,4-dioxane, 328.15 K	0.00567
in 1,4-dioxane, 333.15 K	0.00671
in THF, 278.15 K	0.00256
in THF, 283.15 K	0.00275
in THF, 288.15 K	0.00302
in THF, 293.15 K	0.00338
in THF, 298.15 K	0.00381
in THF, 303.15 K	0.00421
in THF, 308.15 K	0.00462
in THF, 313.15 K	0.00494
in THF, 318.15 K	0.00549
in acetic acid, 293.15 K	0.000799
in acetic acid, 298.15 K	0.000876
in acetic acid, 303.15 K	0.000991
in acetic acid, 308.15 K	0.00116
in acetic acid, 313.15 K	0.00131
in acetic acid, 318.15 K	0.00156
in acetic acid, 323.15 K	0.00177
in acetic acid, 328.15 K	0.00197
in acetic acid, 333.15 K	0.00227
in acetonitrile, 278.15 K	0.000183
in acetonitrile, 283.15 K	0.000225
in acetonitrile, 288.15 K	0.000258
in acetonitrile, 293.15 K	0.000306
in acetonitrile, 298.15 K	0.000379
in acetonitrile, 303.15 K	0.000453
in acetonitrile, 308.15 K	0.000548
in acetonitrile, 313.15 K	0.000653
in acetonitrile, 318.15 K	0.000779
in ethanol, 278.15 K	0.00378
in ethanol, 288.15 K	0.00492
in ethanol, 293.15 K	0.00579
in ethanol, 298.15 K	0.00702
in ethanol, 303.15 K	0.00846
in ethanol, 308.15 K	0.00974
in ethanol, 313.15 K	0.0114
in ethanol, 318.15 K	0.0142
in ethyl acetate, 278.15 K	0.000247
in ethyl acetate, 283.15 K	0.000353
in ethyl acetate, 288.15 K	0.000602
in ethyl acetate, 293.15 K	0.000897
in ethyl acetate, 298.15 K	0.00131
in ethyl acetate, 303.15 K	0.00215
in ethyl acetate, 308.15 K	0.00329
in ethyl acetate, 313.15 K	0.00477
in ethyl acetate, 318.15 K	0.00742
in formic acid, 278.15 K	0.00285
in formic acid, 283.15 K	0.00305
in formic acid, 288.15 K	0.00326
in formic acid, 293.15 K	0.00361
in formic acid, 298.15 K	0.00408
in formic acid, 303.15 K	0.00456
in formic acid, 308.15 K	0.00507
in formic acid, 313.15 K	0.00596
in formic acid, 318.15 K	0.00694
in isopropanol, 278.15 K	0.0038
in isopropanol, 283.15 K	0.00417
in isopropanol, 288.15 K	0.00485
in isopropanol, 293.15 K	0.00555
in isopropanol, 298.15 K	0.00638
in isopropanol, 303.15 K	0.00735
in isopropanol, 308.15 K	0.00896
in isopropanol, 313.15 K	0.0106
in isopropanol, 318.15 K	0.0125
in methanol, 278.15 K	0.00449
in methanol, 283.15 K	0.0048
in methanol, 288.15 K	0.00547
in methanol, 293.15 K	0.00676
in methanol, 298.15 K	0.00874
in methanol, 303.15 K	0.0118
in methanol, 308.15 K	0.0155
in methanol, 313.15 K	0.0209
in methanol, 318.15 K	0.026
in n-propanol, 278.15 K	0.00311
in n-propanol, 283.15 K	0.00361
in n-propanol, 288.15 K	0.00433
in n-propanol, 293.15 K	0.00512
in n-propanol, 298.15 K	0.00632
in n-propanol, 303.15 K	0.00761
in n-propanol, 308.15 K	0.00892
in n-propanol, 313.15 K	0.0107
in n-propanol, 318.15 K	0.0135
in toluene, 278.15 K	0.000365
in toluene, 283.15 K	0.000582
in toluene, 288.15 K	0.000848
in toluene, 293.15 K	0.00119
in toluene, 298.15 K	0.00175
in toluene, 303.15 K	0.00253
in toluene, 308.15 K	0.00356
in toluene, 313.15 K	0.00487
in toluene, 318.15 K	0.00589
